The values below are quoted from earlier work in patent publication US7592371B2, “External preparation” (Medrx Co., Ltd., priority 2004, dated 2009).

For the series the following is noted: oral administration.

`COc1ccc(C=CC(=O)Nc2ccccc2C(=O)O)cc1OC` [tranilast, N-(3,4-Dimethoxycinnamoyl) anthranilic acid]: the side effects entry is “serious side effects such as hepatic dysfunction and renal dysfunction”.
